Reference: patent publication US8592581B2, “Trisubstituted purine derivatives” (Cyclacel Limited, priority 2007, dated 2013)

Test system: Mcl-1
Assay: Mcl-1 downregulation in H460 cells by Western blotting
Format: cell-based
Settings: H460 cells, 24 hours, top concentration close to IC50
Experimental: The media was removed and the adherent cells washed with 5 ml PBS. […] Proteins were transferred to nitrocellulose membranes (Schleicher & Schuell, Dassel, Germany) using wet electrophoretic transfer. Membranes were stained with Ponceau S to confirm equal loading before blocking in 5% nonfat milk in PBS with 0.05% Tween 20 (PBSTM) for 2 hours. Membranes were incubated overnight at 4° C. with primary antibody (rabbit polyclonal antibody to Mcl-1, Santa Cruz), diluted 1:1000 in PBSTM. Membranes were washed 2×5 minute followed by 2×10 minute in PBS and 0.05% Tween 20 (PBST) and incubated for 1 hour in PBSTM containing horseradish peroxidase-conjugated secondary antibody. Membranes were washed as before and incubated with enhanced chemiluminescence solution (Amersham) and exposed to X-ray film (Amersham).
In a second experiment the effect of additional compounds on Mcl-1 levels was investigated.

CC[C@H](CO)Nc1nc(NCc2ccccc2)c2ncn(C(C)C)c2n1 [Seliciclib, seliciclib, reference compound]
changes in Mcl-1 levels (in words): very modest changes
